In ChEMBL document CHEMBL1123962, “Chemical aspects of metoprolol metabolism. Asymmetric synthesis and absolute configuration of the 3-[4-(1-hydroxy-2-methoxyethyl)phenoxy]-1-(isopropylamino)-2-propanols , the diastereomeric benzylic hydroxylation metabolites” (J Med Chem, 1988):

How the values were obtained:
Rattus norvegicus [1] = species: Rattus norvegicus; assay: Stereoselectivity in presence of rat liver microsomes; format: functional
Rattus norvegicus [2] = species: Rattus norvegicus; assay: Product stereoselectivity in presence of rat liver microsomes; format: functional

Compound	Activity (Rattus norvegicus [1]) [%]	Activity (Rattus norvegicus [2]) [%]
COCCc1ccc(OC[C@H](O)CNC(C)C)cc1	90.4	
COCCc1ccc(OCC(O)CNC(C)C)cc1 (racemic)	93.2	
COCCc1ccc(OC[C@@H](O)CNC(C)C)cc1		96.3
